# Source: patent publication US11136325B2, “Pyrrolopyrimidine and pyrrolopyridine derivatives” (GALAPAGOS NV, priority 2017, dated 2021)
# Biological target: hASK1 (Homo sapiens (Human), UniProt Q99683)
# Experiment: ASK1 biochemical assay (IMAP technology)
# Settings: 150 μM ATP, 6 nM hASK1
# Description: IMAP® technology provides a homogeneous assay applicable to a wide variety of kinases, phosphatases, and phosphodiesterases without regard for substrate peptide sequence. The assay is a simple mix-and-read procedure allowing accurate determination of enzyme activity. Based on the specific, high-affinity interaction of phospho groups with trivalent metal-containing nanoparticles (beads), IMAP is a generic, non-antibody-based platform to assess kinase, phosphatase, and phosphodiesterase activity. An enzyme reaction is performed using fluorescently labeled substrate. Addition of the IMAP Binding System stops the enzyme reaction and initiates binding of the beads to phosphorylated substrates. Binding of the substrate to the beads, which correlates to enzyme activity, can be detected using either FP or TR-FRET as a readout.
# Apoptosis Signal-regulating Kinase (ASK1), also known as MAP3K5, is a member of the mitogen-activated protein kinase kinase kinase (MAP3K) family of kinases. It activates the Jnk and p38 pathways through the MAP2Ks MKK4/7 and MKK3/6 (respectively). This ASK1 IMAP assay uses the following IMAP peptide: RP7140-T2 (5TAMRA-GTFRAAIRRLAARRR-OH, SEQ ID NO: 1). The assay has been configured to run at Km for ATP ([…]) so that it will be sensitive to ATP-competitive inhibitors. The final assay conditions are […], 1 mM DTT, 200 nM peptide and 6 nM ASK1 (total protein). The binding reagent is made up in 100% A at a final dilution of 1:200.
# KIT IMAP FP, Cat. No. R8127; Reaction Buffer-Tween (5× conc.), Molecular Devices, Cat. No. R7436; Diluted 1:5 with H2O and containing DTT (1 mM from 1M stock); Progressive Binding Buffer (PBB) A (5× conc.), Molecular Devices, Cat. No. R7282; Progressive Binding Reagent (PB Reagent), Molecular Devices, Cat. No. R7284; Enzyme Solution (containing 2× Ask1 in Reaction buffer); Substrate Solution (containing 2× peptide substrate in Reaction buffer, and 2×150 μM ATP in Reaction buffer); Bead Buffer (Progressive Binding Buffer A diluted 1:5 with H2O); Bead Solution (Bead Buffer containing 1:200 Progressive Binding Reagent (2×))
# 100 nL of test compound in 100% DMSO was added to 384-well plates. For a dose response experiment a 1 in 4 dilution of compound (25 μM top final concentration) was used. 3 μL of hASK1 (6 nM), hASK2 (25 nM) or rASK1 (15 nM) was added to each well except in the control well to which 3 μL buffer was added. 3 μL of substrate solution was added to each well and the plates were incubated for 4 h at room temperature. After which time 6 μL of IMAP™ Bead Solution (Progressive Binding Buffer A+PB Reagent; final dilution 1:100) was added to each well and spun for 1 minute at 1000 rpm. The plates were then incubated for 2 h at room temperature after which time the plates were read on a Perkin Elmer EnVision plate reader.
# Calculation of IC50 data, curves and QC analysis was made by using Excel tools and GraphPadPrism software, v. 5.03. Briefly, individual concentration-effect curves are generated by plotting the logarithm of the tested concentration of tested compounds (X) vs. corresponding percent inhibition values (Y) using least squares (ordinary) fit. Up to ¼ points from high/low controls are allowed to be excluded, but only if values are >Avg.±1*SD. Fitting equation used for IC50 calculation=log(inhibitor) vs. response−Variable slope (four parameters). Calculated results: Calc 1: mP value for FP measurement=1000*(S−G*P)/(S+G*P) where S=<detector 2 or FP-BodipyTAMRA_Ex531-Em579-optimized(1) channel 2>P=<detector 1 or FP-BodipyTAMRA_Ex531-Em579-optimized(1) channel 1>G=G-factor. Gain=100. Top constrain is used only if top values are not correctly calculated.
# Minimum constrained if less than −30% I or greater than 30% I. Maximum constrained if less than 70% I or greater than 130% I. Z′-Factor Target>0.4. Hill Slope range 0.5 to 5.
# hASK1, sequence (Q99683 whole entry): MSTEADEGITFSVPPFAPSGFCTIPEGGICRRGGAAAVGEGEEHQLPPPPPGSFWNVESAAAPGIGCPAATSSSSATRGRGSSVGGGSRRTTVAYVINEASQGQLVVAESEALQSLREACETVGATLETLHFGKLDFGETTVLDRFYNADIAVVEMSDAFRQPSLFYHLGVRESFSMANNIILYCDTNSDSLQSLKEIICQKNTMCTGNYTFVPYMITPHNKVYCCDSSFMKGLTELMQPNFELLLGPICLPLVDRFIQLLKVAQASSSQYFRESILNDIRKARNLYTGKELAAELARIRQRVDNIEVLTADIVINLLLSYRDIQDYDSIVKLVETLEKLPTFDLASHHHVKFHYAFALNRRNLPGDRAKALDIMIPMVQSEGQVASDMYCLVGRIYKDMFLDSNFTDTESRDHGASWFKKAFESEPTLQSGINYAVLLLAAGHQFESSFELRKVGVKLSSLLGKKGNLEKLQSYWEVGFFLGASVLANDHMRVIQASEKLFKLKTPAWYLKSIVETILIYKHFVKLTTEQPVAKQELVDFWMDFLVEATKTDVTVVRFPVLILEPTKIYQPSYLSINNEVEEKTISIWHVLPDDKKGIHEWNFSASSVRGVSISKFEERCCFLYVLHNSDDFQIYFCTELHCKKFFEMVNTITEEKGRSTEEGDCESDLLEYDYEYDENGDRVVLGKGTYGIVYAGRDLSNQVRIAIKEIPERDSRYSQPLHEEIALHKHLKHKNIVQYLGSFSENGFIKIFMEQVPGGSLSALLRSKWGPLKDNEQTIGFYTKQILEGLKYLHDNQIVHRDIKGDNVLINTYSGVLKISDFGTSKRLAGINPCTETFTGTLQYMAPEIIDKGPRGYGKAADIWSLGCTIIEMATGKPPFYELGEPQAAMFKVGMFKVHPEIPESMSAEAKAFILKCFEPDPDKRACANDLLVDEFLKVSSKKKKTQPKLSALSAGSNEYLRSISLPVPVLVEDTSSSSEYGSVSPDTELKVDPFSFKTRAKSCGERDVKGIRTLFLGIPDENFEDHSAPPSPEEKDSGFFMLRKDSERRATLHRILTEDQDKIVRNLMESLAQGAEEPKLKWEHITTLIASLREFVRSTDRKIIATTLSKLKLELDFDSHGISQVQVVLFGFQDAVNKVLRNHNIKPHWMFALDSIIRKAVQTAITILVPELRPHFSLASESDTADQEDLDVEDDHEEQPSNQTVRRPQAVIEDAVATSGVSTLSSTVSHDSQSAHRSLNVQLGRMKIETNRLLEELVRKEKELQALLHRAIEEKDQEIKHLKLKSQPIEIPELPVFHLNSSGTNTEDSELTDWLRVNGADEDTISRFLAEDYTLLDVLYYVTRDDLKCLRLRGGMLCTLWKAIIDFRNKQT
row,Inhibition (pIC50) ASK1,SMILES
1,8.43/—,"Nc1cc(C(=O)NC2CCN(c3ncnc4[nH]cc(Cl)c34)CC2)c(F)cn1 [Compound 5, 2-amino-N-[1-(5-chloro-7H-pyrrolo[2,3-d]pyrimidin-4-yl)-4-piperidyl]-5-fluoro-pyridine-4-carboxamide]"
2,8.24,"Cc1c[nH]c2ncnc(N3CCC(NC(=O)c4cc(N)ncc4F)CC3)c12 [Compound 1, 2-amino-5-fluoro-N-[1-(5-methyl-7H-pyrrolo[2,3-d]pyrimidin-4-yl)-4-piperidyl]pyridine-4-carboxamide]"
3,8.05/—,"Cc1c[nH]c2ncnc(N3CCC(NC(=O)c4cc(N)ncc4Cl)CC3)c12 [Compound 3, 2-amino-5-chloro-N-[1-(5-methyl-7H-pyrrolo[2,3-d]pyrimidin-4-yl)-4-piperidyl]-pyridine-4-carboxamide]"
4,8.46,"Nc1cc(C(=O)NC2CCN(c3ncnc4[nH]cc(Cl)c34)CC2)ccn1 [Compound 4, 2-amino-N-[1-(5-chloro-7H-pyrrolo[2,3-d]pyrimidin-4-yl)-4-piperidyl]pyridine-4-carboxamide]"
5,8.98/—,"Cc1c[nH]c2ncc(C#N)c(N3CCC(NC(=O)c4cc(N)ncc4F)CC3)c12 [Compound 6, 2-amino-N-[1-(5-cyano-3-methyl-1H-pyrrolo[2,3-b]pyridin-4-yl)-4-piperidyl]-5-fluoro-pyridine-4-carboxamide]"
6,8.17,"Cc1cnc(N)cc1C(=O)NC1CCN(c2ncnc3[nH]cc(C)c23)CC1 [Compound 2, 2-amino-5-methyl-N-[1-(5-methyl-7H-pyrrolo[2,3-d]pyrimidin-4-yl)-4-piperidyl]pyridine-4-carboxamide]"
7,8.24/—,"Nc1cc(C(=O)NC2CCN(c3ccnc4[nH]cc(Cl)c34)CC2)c(F)cn1 [Compound 7, 2-amino-N-[1-(3-chloro-1H-pyrrolo[2,3-b]pyridin-4-yl)-4-piperidyl]-5-fluoro-pyridine-4-carboxamide]"
